Laboratory results taken from ChEMBL document CHEMBL5352419, “Design, synthesis, and biological evaluation of tetrahydroquinoline amphiphiles as membrane-targeting antimicrobials against pathogenic bacteria and fungi” (Eur J Med Chem, 2022).
Converted amounts (≈) assume the structure as drawn.

How the values were obtained:
Staphylococcus aureus [1] = experiment: Antimicrobial activity against Staphylococcus aureus ATCC29213 assessed as bacterial growth inhibition incubated for 24 hrs by Muller Hinton broth based dilution assay; assay type: functional
Klebsiella pneumoniae [2] = experiment: Antimicrobial activity against Klebsiella pneumoniae ATCC10031 assessed as bacterial growth inhibition incubated for 24 hrs by Muller Hinton broth based dilution assay; assay type: functional
Acinetobacter baumannii [3] = experiment: Antimicrobial activity against Acinetobacter baumannii ATCC17978 assessed as bacterial growth inhibition incubated for 24 hrs by Muller Hinton broth based dilution assay; assay type: functional
Escherichia coli = experiment: Antimicrobial activity against Escherichia coli ATCC25922 assessed as bacterial growth inhibition incubated for 24 hrs by Muller Hinton broth based dilution assay; assay type: functional
Klebsiella pneumoniae [4] = experiment: Antimicrobial activity against Klebsiella pneumoniae ATCC14581 assessed as bacterial growth inhibition incubated for 24 hrs by Muller Hinton broth based dilution assay; assay type: functional
Pseudomonas aeruginosa = experiment: Antimicrobial activity against Pseudomonas aeruginosa ATCC9027 assessed as bacterial growth inhibition incubated for 24 hrs by Muller Hinton broth based dilution assay; assay type: functional
Acinetobacter baumannii [5] = experiment: Antimicrobial activity against Acinetobacter baumannii R2889 assessed as bacterial growth inhibition incubated for 24 hrs by Muller Hinton broth based dilution assay; assay type: functional
Staphylococcus aureus [6] = experiment: Antimicrobial activity against methicillin-resistant Staphylococcus aureus NCTC10442 assessed as bacterial growth inhibition incubated for 24 hrs by Muller Hinton broth based dilution assay; assay type: functional
Staphylococcus aureus [7] = experiment: Antimicrobial activity against methicillin-resistant Staphylococcus aureus N315 assessed as bacterial growth inhibition incubated for 24 hrs by Muller Hinton broth based dilution assay; assay type: functional
[8] = Hemolytic activity in rabbit RBC incubated for 1 hr by absorbance based microplate reader assay; assay type: toxicity, cell-based, Oryctolagus cuniculus, Erythrocyte; details: rabbit red blood cells (erythrocytes)
Candida albicans [9] = experiment: Antimicrobial activity against Candida albicans CMCC98001 assessed as fungal growth inhibition incubated for 48 hrs by Sabouraud Dextrose broth based dilution assay; assay type: functional
Candida albicans [10] = experiment: Antimicrobial activity against Candida albicans ATCC10231 assessed as fungal growth inhibition incubated for 48 hrs by Sabouraud Dextrose broth based dilution assay; assay type: functional

SMILES	MIC (Staphylococcus aureus [1])	MIC (Klebsiella pneumoniae [2])	MIC (Acinetobacter baumannii [3])	MIC (Escherichia coli)	MIC (Klebsiella pneumoniae [4])	MIC (Pseudomonas aeruginosa)	MIC (Acinetobacter baumannii [5])	MIC (Staphylococcus aureus [6])	MIC (Staphylococcus aureus [7])	HC50 at 1 h [8]	MIC (Candida albicans [9])	MIC (Candida albicans [10])
O=C(O)c1cn(C2CC2)c2cc(N3CCNCC3)c(F)cc2c1=O [CIPROFLOXACIN]	0.39 µg/mL (≈ 1.18 µM)	0.195 µg/mL (≈ 0.589 µM)	0.39 µg/mL (≈ 1.18 µM)	0.049 µg/mL (≈ 0.148 µM)	0.195 µg/mL (≈ 0.589 µM)	0.195 µg/mL (≈ 0.589 µM)	0.78 µg/mL (≈ 2.35 µM)	0.39 µg/mL (≈ 1.18 µM)	0.39 µg/mL (≈ 1.18 µM)	–	–	–
CC(C)=CCC/C(C)=C/CN1CCCc2cc(OCCCCNC(=N)N)ccc21	0.78 µg/mL (≈ 1.96 µM)	1.56 µg/mL (≈ 3.91 µM)	3.12 µg/mL (≈ 7.84 µM)	3.12 µg/mL (≈ 7.84 µM)	1.56 µg/mL (≈ 3.91 µM)	6.25 µg/mL (≈ 15.7 µM)	3.12 µg/mL (≈ 7.84 µM)	0.78 µg/mL (≈ 1.96 µM)	0.78 µg/mL (≈ 1.96 µM)	154 µg/mL	1.56 µg/mL (≈ 3.91 µM)	3.12 µg/mL (≈ 7.84 µM)
CCCCCN1CCCc2cc(OCCCCNC(=N)N)ccc21	1.56 µg/mL (≈ 4.69 µM)	6.25 µg/mL (≈ 18.8 µM)	12.5 µg/mL (≈ 37.6 µM)	12.5 µg/mL (≈ 37.6 µM)	12.5 µg/mL (≈ 37.6 µM)	25 µg/mL (≈ 75.2 µM)	25 µg/mL (≈ 75.2 µM)	1.56 µg/mL (≈ 4.69 µM)	1.56 µg/mL (≈ 4.69 µM)	178 µg/mL	50 µg/mL (≈ 150 µM)	50 µg/mL (≈ 150 µM)
CCCCCCCN1CCCc2cc(OCC(=O)N[C@@H](CCCNC(=N)N)C(=O)OC)ccc21	3.12 µg/mL (≈ 6.57 µM)	6.25 µg/mL (≈ 13.1 µM)	12.5 µg/mL (≈ 26.3 µM)	12.5 µg/mL (≈ 26.3 µM)	6.25 µg/mL (≈ 13.1 µM)	12.5 µg/mL (≈ 26.3 µM)	12.5 µg/mL (≈ 26.3 µM)	1.56 µg/mL (≈ 3.28 µM)	1.56 µg/mL (≈ 3.28 µM)	> 200 µg/mL	12.5 µg/mL (≈ 26.3 µM)	25 µg/mL (≈ 52.6 µM)
CCCCCCCN1CCCc2cc(OCCCCNC(=N)N)ccc21	1.56 µg/mL (≈ 4.33 µM)	1.56 µg/mL (≈ 4.33 µM)	6.25 µg/mL (≈ 17.3 µM)	3.12 µg/mL (≈ 8.67 µM)	1.56 µg/mL (≈ 4.33 µM)	6.25 µg/mL (≈ 17.3 µM)	6.25 µg/mL (≈ 17.3 µM)	0.78 µg/mL (≈ 2.16 µM)	0.78 µg/mL (≈ 2.16 µM)	169 µg/mL	3.12 µg/mL (≈ 8.67 µM)	6.25 µg/mL (≈ 17.3 µM)
Oc1ccc2c(c1)CCCN2CCCC(F)(F)F	> 50 µg/mL	–	–	> 50 µg/mL	–	–	–	> 50 µg/mL	> 50 µg/mL	> 200 µg/mL	> 50 µg/mL	> 50 µg/mL
CCCCCCCN1CCCc2cc(OCCCCCCCCBr)ccc21	> 50 µg/mL	–	–	> 50 µg/mL	–	–	–	> 50 µg/mL	> 50 µg/mL	> 200 µg/mL	> 50 µg/mL	> 50 µg/mL
CC(C)=CCC/C(C)=C/CN1CCCc2cc(OCCCCCCCCNC(=N)N)ccc21	3.12 µg/mL (≈ 6.87 µM)	–	–	25 µg/mL (≈ 55 µM)	–	–	–	1.56 µg/mL (≈ 3.43 µM)	3.12 µg/mL (≈ 6.87 µM)	> 200 µg/mL	0.78 µg/mL (≈ 1.72 µM)	0.78 µg/mL (≈ 1.72 µM)
CC(C)=CCN1CCCc2cc(OCCCCCCCCCCCCBr)ccc21	> 50 µg/mL	–	–	> 50 µg/mL	–	–	–	> 50 µg/mL	> 50 µg/mL	> 200 µg/mL	> 50 µg/mL	> 50 µg/mL
CC(C)=CCC/C(C)=C/CN1CCCc2cc(OCCCCBr)ccc21	25 µg/mL (≈ 59.5 µM)	–	–	> 50 µg/mL	–	–	–	25 µg/mL (≈ 59.5 µM)	25 µg/mL (≈ 59.5 µM)	> 200 µg/mL	50 µg/mL (≈ 119 µM)	> 50 µg/mL
CCCCCN1CCCc2cc(OCC(=O)N[C@@H](CCCNC(=N)N)C(=O)OC)ccc21	50 µg/mL (≈ 112 µM)	–	–	> 50 µg/mL	–	–	–	25 µg/mL (≈ 55.9 µM)	25 µg/mL (≈ 55.9 µM)	> 200 µg/mL	> 50 µg/mL	> 50 µg/mL
FC(F)(F)CCCN1CCCc2cc(OCCCCBr)ccc21	25 µg/mL (≈ 63.4 µM)	–	–	> 50 µg/mL	–	–	–	12.5 µg/mL (≈ 31.7 µM)	25 µg/mL (≈ 63.4 µM)	> 200 µg/mL	> 50 µg/mL	> 50 µg/mL
CCCN1CCCc2cc(OCCCCNC(=N)N)ccc21	12.5 µg/mL (≈ 41.1 µM)	–	–	> 50 µg/mL	–	–	–	12.5 µg/mL (≈ 41.1 µM)	6.25 µg/mL (≈ 20.5 µM)	> 200 µg/mL	> 50 µg/mL	> 50 µg/mL
CCCCCCCN1CCCc2cc(OCC(=O)OCC)ccc21	> 50 µg/mL	–	–	> 50 µg/mL	–	–	–	> 50 µg/mL	> 50 µg/mL	> 200 µg/mL	> 50 µg/mL	> 50 µg/mL
CC(C)=CCN1CCCc2cc(OCCCCCCBr)ccc21	50 µg/mL (≈ 131 µM)	–	–	> 50 µg/mL	–	–	–	25 µg/mL (≈ 65.7 µM)	25 µg/mL (≈ 65.7 µM)	> 200 µg/mL	50 µg/mL (≈ 131 µM)	50 µg/mL (≈ 131 µM)
Oc1ccc2c(c1)CCCN2	> 50 µg/mL	–	–	> 50 µg/mL	–	–	–	> 50 µg/mL	> 50 µg/mL	> 200 µg/mL	> 50 µg/mL	> 50 µg/mL
CCN(CC)CCCCOc1ccc2c(c1)CCCN2CC=C(C)C	> 50 µg/mL	–	–	> 50 µg/mL	–	–	–	> 50 µg/mL	> 50 µg/mL	> 200 µg/mL	> 50 µg/mL	> 50 µg/mL
CCCCCCCCCN1CCCc2cc(O)ccc21	12.5 µg/mL (≈ 45.4 µM)	–	–	> 50 µg/mL	–	–	–	12.5 µg/mL (≈ 45.4 µM)	12.5 µg/mL (≈ 45.4 µM)	> 200 µg/mL	50 µg/mL (≈ 182 µM)	50 µg/mL (≈ 182 µM)
CCCCCCCCCN1CCCc2cc(OCCCCCCCCNC(=N)N)ccc21	3.12 µg/mL (≈ 7.03 µM)	–	–	25 µg/mL (≈ 56.2 µM)	–	–	–	3.12 µg/mL (≈ 7.03 µM)	3.12 µg/mL (≈ 7.03 µM)	> 200 µg/mL	1.56 µg/mL (≈ 3.51 µM)	0.78 µg/mL (≈ 1.75 µM)
CC(C)=CCN1CCCc2cc(OCCCNC(=N)N)ccc21	6.25 µg/mL (≈ 19.8 µM)	–	–	50 µg/mL (≈ 158 µM)	–	–	–	6.25 µg/mL (≈ 19.8 µM)	6.25 µg/mL (≈ 19.8 µM)	> 200 µg/mL	> 50 µg/mL	> 50 µg/mL
